Series [1] is described as follows: Size and charge determination of nanoparticles (Zetasizer Nano ZS), Example 1. The series is classed as physicochemical. The text has this:
Size and Charge Determination.

Series [2] can be described thus: in vitro. Format: cell-based. The note with it: female, C57BL/6J, mouse. How it is done: Cell Culture of Bone Marrow-Derived Macrophages. […] After 7 days, the cells were transferred to tissue culture 96 well plates (Corning) at a density of 100,000 in 20 μL of medium and allowed to settle overnight for subsequent assays.
Lactate Dehydrogenase Release (LDH) Toxicity Assay. For determination of cytotoxicity, mature bone marrow-derived macrophages (BMDM) were treated with 20 μL of the lipids (concentrations denoted in figure legend) diluted in 20 mM HEPES buffer, with HEPES buffer as negative control and 10% Triton X-100 as positive control. After 24 hours, the 96 well plates were centrifuged at 200×g for 5 minutes to remove debris and 100 μL of media was transferred to an untreated flat-bottom 96 well plate. Next, 100 μL of LDH reaction reagent purchased from Cayman Chemical (Ann Arbor, MI) was added to each and allowed to sit for 30 minutes at 37° C. Absorbance at 490 and 680 nm were measured using a BioTek Synergy H1 plate reader and the data were processed using Microsoft Excel. Mean values from triplicates are shown for one of two independent experiments.

Series [3] is described as follows: Nanoparticle pKa via TNS fluorescence. The series is classed as physicochemical. To be noted: liposomes of the cationic lipid in buffer, probe 2-(p-toluidino)-6-napthalene sulfonic acid (TNS), 1 µM final, pH 2.5 to 12, read-out: pKa. How it is done:
Determination of Nanoparticle pKa via TNS Fluorescence. […] The solutions were mixed by pipetting and incubated at room temperature for 10 minutes, before being analysed for fluorescence intensity using a 321 nm excitation and 445 nm emission wavelengths.

Series [4] can be described thus: Characterization of nanoparticles (size, zeta potential, DNA encapsulation), Example 2. To be noted: LNPs made with the cationic lipid. The series is classed as physicochemical. How it is done:
The concentration of DNA in LNPs after dialysis was quantified using an AccuClear® Ultra High Sensitivity dsDNA Quantification Kit (Biotium #31027) and quantified on a BioTek Synergy H1 plate reader. Encapsulation efficiencies were determined by comparing the amount of DNA in the LNP solution vs. the DNA solution used to make them, after disrupting the LNPs with 0.5% Cl2E10 (Abcam #ab146563) and adjusting for volume differences (i.e.: excess volume added during dialysis and dilution volume during ethanol mixture).

The subject of series [5] is BALB/c mice. Description: In vivo hAAT transfection efficiency, serum ELISA and ALT. On the set-up: species or system mouse. How it is done: To assess in vivo hAAT transfection efficiency, mice were administered 200 μL nanoparticles or PBS vehicle i.p. at the doses indicated in the figure legend. Seventy-two hours after injection the mice were bled again for assessment of ALT levels and hAAT expression. hAAT levels were determined via ELISA using serum diluted 1:1 in PBS containing 0.05% casein (PBS-C; 124250; Beantown Chemical), as described previously.^38

Series [6] has as its system BALB/c mice. Description: Anti-hAAT antibody titers and IgG subclass ratios. Format: in vivo, mouse. How it is done: To assess the presence of antibodies toward hAAT, 50 μL of hAAT (OriGene #RG202082) was plated at 2 μg/mL in carbonate buffer, pH 9.7, on a 96 well high binding plate (Greiner #82050-720) and incubated overnight at 4° C. The next day, the plates were washed with PBS containing 0.1% Tween-20 (PBS-T) and blocked for 1 hour with PBS-C at 37° C. After blocking, serum samples were plated at dilutions ranging from 1:100 to 1:1,000,000 and incubated at 37° C. for 2 hours. Secondary antibody (goat anti-mouse IgG HRP; Invitrogen #16066) diluted 1:2000 was applied for 30 min at 37° C., followed by a 30 min. incubation with tetramethylbenzidine (Rockland). Absorbance at 450 nm was recorded using a BioTek Synergy H1 microplate reader. Reciprocal endpoint titers were determined by plotting A450 values versus known dilutions, calculating the slope of that line, and dividing the slope by two times the average of the blank (no serum) wells.
Anti-hAAT IgG subclass ratios were assessed as described above, using a single 1:100 sample dilution and the following detection antibodies: goat anti-mouse IgG1-HRP (Abcam ab98693) at 1:10,000, IgG2a-HRP (Abcam ab98698) at 1:5000, IgG2b-HRP (Abcam ab98703) at 1:10,000 and IgG3 (Jackson 115-035-209) at 1:5000. Subclass ratios were calculated by dividing the absorbance of each subclass by that of IgG1 for each individual mouse.

For series [7], the system named is canonical NFKB. Description: THP-1-Blue NFKB reporter (SEAP) assay. Format: cell-based, human.
The test system of series [8] is J774 murine macrophages. Description: CD80 expression on macrophages treated with lipid. The series is classed as cell-based. The note with it: 16 hours. The source says:
Increased expression of CD80 after TZ3 treatment aligns with data observed for DOTAP,^109 and supports the hypothesis that cationic lipids activate the non-canonical NFKB pathway leading to enhanced antigen presentation and co-stimulatory molecule expression.

In series [9] the test system is C57BL/6J mice. Description: In vivo toxicity of cationic lipid nanoparticles (ALT, IL-6, SCr, mortality).
[10] abbreviates: 20 mM lipid, i.p., versus baseline.

“Also recorded” adds a separate entry of the source.

Regarding `CCCCCCCCCCCCN(CCCCCCCCCCCC)c1nc(NCCCN)nc(NCCCN)n1` [Lipid 3], the PDI in series [1] (nanoparticles of pure lipid (Table 1)) is 0.41 ± 0.02. In addition, the Size in series [1] (nanoparticles of pure lipid, 1 mM, 25° C. (Table 1)) was 130 ± 2 nm. For the same compound, the Charge in series [1] (zeta potential, nanoparticles of pure lipid (Table 1)) was 52 ± 3 mV. In [2], the IC50 at 24 h amounted to 111 µM. Further, in series [3], the pKa worked out at 7.37. Further, the “encapsulation of DNA (general)” value in series [4] is reported as 60-70%. The “hAAT levels at 4 weeks” value in series [5] (LP transfection, 4 weeks after treatment) is given as “persisted at 4 weeks after treatment”. For the same compound, the “average hAAT levels in serum” value in series [5] (LPs (50% cationic lipid, 50% DOPE), 10,000 ng hAAT plasmid DNA i.p., 72 hours) was 9.5 ng/mL. Further, the “increase in anti-hAAT titers versus the two control lipids” value in series [6] (25 μg hAAT protein concurrent with 1 mM lipid, day 14) is 1000 fold. Besides, the “increase in antibody titer toward a model antigen” value in series [6] (absence of additional adjuvants (FIG. 60)) was “greater than 3 orders of magnitude”. The “ratios of IgG2a, 2b and 3 to IgG1” value in series [6] (hAAT protein delivered with lipids) is “more balanced IgG2a/IgG1 ratio than DOTAP and DMPC”. The “antibody response relative to DOTAP” value in series [6] (hAAT protein delivery) is “two orders of magnitude greater than DOTAP”. Further, the “RET (anti-hAAT)” value in [6] (lipid used to deliver the hAAT protein) is reported as > 100,000. Moreover, the “anti-hAAT IgG titers” value in series [6] (transgene delivery, 10 μg hAAT DNA, day 14, versus untreated mice) was “significantly higher anti-hAAT titers than untreated mice”. In addition, in series [6] (transgenic hAAT delivery with LPs), the “Th1/Th2 response (ratios of IgG2a, 2b, and 3 over IgG1)” value is on record as “balanced Th1/Th2 response”. The IC50 in series [7] (Homo sapiens, THP-1-Blue cells stimulated with TNFα, 24 h lipid treatment, read-out: IC50, canonical NFKB inhibition) was 4 µM. The same compound showed an IC80 in series [7] (Homo sapiens, canonical NFKB inhibition) of 10 µM. For the same compound, the “canonical NFKB inhibition” value in [7] (THP-1-Blue cells stimulated with TNFα, listed as TZ3) was “dose dependent, but not affected by duration of exposure; also recorded: dose dependent inhibition of the canonical NFKB pathway”. Moreover, the CD80 expression result in series [8] (MFI relative to untreated cells, listed as TZ3) is given as “does-dependent increase in mean fluorescence intensity (MFI) of CD80; also recorded: dose-dependent increase in expression of the co-stimulatory molecule, CD80”. The “cell viability (ZombieDye live/dead stain)” value in [8] (across lipid concentrations) is given as “cells are viable across lipid concentrations”. In series [9] (setting [10]), the “interleukin 6 (IL-6)” value is recorded as “trended upward” and the “serum alanine aminotransferase (ALT)” value is recorded as “trended upward”. The “in vivo toxicity (overall)” value in series [9] (100 μL cationic lipid nanoparticles i.p., listed as TZ3) is “comparable toxicity to DOTAP; also recorded: does not induce significant in vivo toxicity”.
